Results: patent US12534707B2, “Method for generating cardiac tissue mimetics” (GENOME BIOLOGICS UG, priority 2019, dated 2026)
“Also recorded” adds a separate entry of the source.

B1: TGF β2: transforming growth factor β2 (R&D Systems; 302-B2), inducer of endothelial-mesenchymal transition and cardiac fibrosis (protein, UniProt P61812 303-414, looked up)
Transforming growth factor …: ALDAAYCFRNVQDNCCLRPLYIDFKRDLGWKWIHEPKGYNANFCAGACPYLWSSDTQHSRVLSLYNTINPEASASPCCVSQDLEPLTILYYIGKTPKIEQLSNMIVKSCKCS

Key:
[1] = test system: cardiac tissue mimetics (CTMs); experiment: CTM vascularisation (GFP-HUVEC sprout length, thickness, branch points); format: cell-based, rat, human; conditions: 200 μM PE with 1 μM Propranolol or 50 μM Metoprolol, 10 days, vs 0.1% DMSO; FIGS. 21, 22
HUVEC spheroids = experiment: Spheroid-based angiogenic sprouting assay; format: cell-based, human; conditions: for endothelial sprouting of HUVEC spheroids with supernatants of CM cultured with PE plus β-blocker: neonatal rat CM 72 hours with 200 μM PE + 1 μM Propranolol or 50 μM Metoprolol, vs PE alone, FIG. 25
Experimental: After 72 hours, cell culture supernatants were centrifuged (500×g, 5 minutes) to deplete dead cells and stored at −80° C.
Endothelial cell sprouting was studied by in vitro spheroid-based angiogenesis assays. In brief, HUVECs were trypsinized and transferred into a mixture of fully supplemented EBM™ and methylcellulose (80%:20%). […] After 24 hours, spheroids were collected, pelleted (200×g, 3 minuted), resuspended in methylcellulose supplemented with FCS (80%:20%) and embedded in a collagen Type-I gel (Corning; 354236). HUVEC spheroids were then either cultured with fully supplemented EBM (+/−VEGF (50 ng/mL; BioLegend; 583702) or +/−PE (200 μM)), maintenance medium or conditioned cell culture medium.

HUVEC = experiment: Tube formation assay; format: cell-based, human; conditions: 1 μM Propranolol or 50 μM Metoprolol, 24 hours on Matrigel, vs Ctrl. and 0.1% DMSO; FIGS. 23, 24
Experimental: Tube formation assay was performed as previously described (J. U. G. Wagner, E. Chavakis, E. M. Rogg, M. Muhly-Reinholz, S. F. Glaser, S. Gunther, D. John, F. Bonini, A. M. Zeiher, L. Schaefer, M. J. Hannocks, R. A. Boon, S. Dimmeler, 2018, Arterioscler Thromb Vasc Biol 38(5), 1170-1177). Briefly, in vitro tube formation was performed with 2×10^4 HUVECs cultured in 100 μL of fully supplemented EBM™ in 96-well plates (Greiner Bio-One GmbH) that had been coated with 100 μL Matrigel® (Corning; 356234).

[2] = test system: cardiac tissue mimetics (CTMs); experiment: Contractility measurement of CTMs (spontaneous beats per minute; pacing at 1 Hz and 15 V); conditions: 200 μM PE with 1 μM Propranolol or 50 μM Metoprolol, 10 days, vs PE + 0.1% DMSO; FIG. 20
[3] = test system: cardiac tissue mimetics (CTMs); experiment: CTM size measurement; conditions: 200 μM PE + 1 μM Propranolol / 50 μM Metoprolol vs PE + 0.1% DMSO; FIG. 39
mature CTMs = experiment: Injury assay on mature CTMs (immunofluorescence, SHG, Sirius red); format: cell-based, rat, human
Experimental: In case of whole mount stainings, CTMs were permeabilized with 0.2% Triton® X-100 in PBS for 1 hour at room temperature followed by blocking with 5% horse serum (Sigma-Aldrich) in PBS for 30 minutes at room temperature. Primary antibodies (see Table 1) were diluted 1:200 in 5% horse serum and incubated over night at 4° C. Before using the secondary antibody (see table below), CTMs were washed three times with PBS containing 1% Tween 20 and 0.002% Triton® X-100 (referred as PBT from here after) for 20 minutes at room temperature. Secondary antibodies (1:500) and DAPI (1:1000; Carl-Roth GmbH & Co. KG) were diluted in 5% horse serum together and incubated for 4 hours at room temperature in the dark. […] Cryo-sections were prepared by embedding fixed spheroids in O.C.T medium (Tissue-Tek), snap-freezing them in liquid nitrogen and cutting them in 10 μm thick sections. Sections were permeabilized and blocked for one hour in 0.1% Triton® X100 (in PBS+BSA). Primary antibody incubated with the sections diluted 1:50-1:100 in 1 mM MgCl2, 1 mM CaCl2, 0.1 mM MnCl2, 1% Triton® X-100 or 0.2% saponin over night at 4° C. The next day, sections were washed trice with 0.1% Triton® X100/PBS or 0.2 saponin (five minutes each) and incubated with the secondary antibody diluted 1:200 in 0.1% Triton® X100 or 0.2% saponin (in PBS) for one hour at room temperature in the dark. Finally, sections were washed again trice with 0.1% Triton® X100/PBS or 0.2% saponin and mounted with mounting medium containing DAPI or Hoechst 33342. Endothelial cells were stained with Isolectin B4.
The second-harmonics generation imaging was performed on an upright spectral multiphoton microscope (Leica TCS SP8 DIVE, non-descanned spectral detectors, objective HC IRAPO L 25×/1.00 W) using 10 μm thick CTM sections. A 1045 nm laser was used for SHG and the signal was detected with a PMT and a detection window from 517 nm to 527 nm. A second detection window was used to record autofluorescence for comparison (552 nm to 565 nm).
Sirius red staining was used to determine collagen deposition and fibrosis in paraffin sections of young versus aged mice hearts. In a first step, the paraffin sections were deparaffinised with xylene (twice 10 minutes) and an ethanol series of 100%, 95%, 80%, 70% and 50% ethanol (5 minutes each step), before washing the sections with water and PBS (5 minutes each step). In a second step, a 0.1% Picrosirius Red solution was prepared by solving 0.5 g Sirius Red (Waldeck GmbH) in 500 mL picric acid (Sigma-Aldrich) that incubated with the deparaffinised sections for 1 hour. After washing two times with acidified water, the sections were dehydrated with 100% ethanol, cleared with xylene and mounted with Pertex (Medite) […]

Row | Molecule | angiogenic sprouting in PE-treated CTMs [1] | endothelial sprouting of HUVEC spheroids with supernatants of CM cultured with PE plus β-blocker (HUVEC spheroids) | direct effect on HUVEC tube formation (accumulated tube length) (HUVEC) | frequency of CTM contraction (beats per minute) [2] | PE-induced hypertrophic growth (CTM size, fold change) [3] | EC spheroid growth / vascular network growth and branching (cumulative sprout length), direct treatment (HUVEC spheroids) | endothelial-mesenchymal transition (ECs expressing vimentin, SM22α, collagen III) (mature CTMs; mature CTMs treated 3 days with TGF β2, FIGS. 32, 40) | cardiac fibroblast activation (vimentin staining) (mature CTMs; mature CTMs with or without TGF β2, FIG. 28) | CTM vascularization (angiogenic sprouting) (mature CTMs; mature CTMs, 200 μM PE + 10 ng/mL TGF β2, 3 days, vs PE, FIGS. 26, 27) | collagen deposition (SHG, Sirius Red staining) (mature CTMs; mature CTMs, PE + 10 ng/mL TGF β2, 3 days, FIGS. 29-31)
1 | COCCc1ccc(OCC(O)CNC(C)C)cc1 (centres unmarked) [Metoprolol] | significant decrease | no significant alterations | no differences; also recorded: could not be detected | significantly decreased; also recorded: reduced | – | – | – | – | – | –
2 | CC(C)NCC(O)COc1cccc2ccccc12 (centres unmarked) [Propranolol] | significant decrease | no significant alterations | no differences; also recorded: could not be detected | significantly decreased; also recorded: reduced | diminished | – | – | – | – | –
3 | VEGF | – | – | – | – | – | significantly increased | – | – | – | –
4 | B1 | – | – | – | – | – | – | occurs; also recorded: single ECs expressing vimentin were found | evidence of cardiac fibroblast activation | slightly increased; also recorded: failed to reach significance | induced; also recorded: augments
